Results published in ChEMBL document CHEMBL1287715, “Discovery of N-benzyl-N'-(4-pipyridinyl)urea CCR5 antagonists as anti-HIV-1 agents (I): optimization of the amine portion” (Bioorg Med Chem Lett, 2010).

Columns and labels:
HOS = test: Cytotoxicity against HOS cells upto 1 uM by celltiter glo assay; type: cell-based; conditions: human
[1] = Cytotoxicity against peripheral blood lymphocyte cells upto 1 uM by celltiter glo assay; type: cell-based; conditions: human

SMILES	Activity (HOS)	Activity [1]
C=CCN(C(=O)OCc1ccc(C(F)(F)F)cc1)C1CCN(CCC2(c3cccc(F)c3)CCN(C(=O)c3cc(S(=O)(=O)NC(C)(C)C)c(F)cc3Cl)CC2)CC1	Non-toxic	Non-toxic
C=CCN(C(=O)OCc1ccc(F)cc1)C1CCN(CCC2(c3cccc(F)c3)CCN(C(=O)c3cc(S(=O)(=O)NC(C)(C)C)c(F)cc3Cl)CC2)CC1	Non-toxic	Non-toxic
C=CCN(C(=O)OCc1ccc(C(=O)OC)cc1)C1CCN(CCC2(c3cccc(F)c3)CCN(C(=O)c3cc(S(=O)(=O)NC(C)(C)C)c(F)cc3Cl)CC2)CC1	Non-toxic	Non-toxic
C=CCN(C(=O)OCc1ccc(S(C)(=O)=O)cc1)C1CCN(CCC2(c3cccc(F)c3)CCN(C(=O)c3cc(S(=O)(=O)NC(C)(C)C)c(F)cc3Cl)CC2)CC1	Non-toxic	Non-toxic
C=CCN(C(=O)OCc1ccc(C#N)cc1)C1CCN(CCC2(c3cccc(F)c3)CCN(C(=O)c3cc(S(=O)(=O)NC(C)(C)C)c(F)cc3Cl)CC2)CC1	Non-toxic	Non-toxic
C=CCN(C(=O)OCc1ccc(OC(F)(F)F)cc1)C1CCN(CCC2(c3cccc(F)c3)CCN(C(=O)c3cc(S(=O)(=O)NC(C)(C)C)c(F)cc3Cl)CC2)CC1	Non-toxic	Non-toxic
C=CCN(C(=O)Nc1ccc(C(F)(F)F)cc1)C1CCN(CCC2(c3cccc(F)c3)CCN(C(=O)c3cc(S(=O)(=O)NC(C)(C)C)c(F)cc3Cl)CC2)CC1	Non-toxic	Non-toxic
C=CCN(C(=O)NCc1ccc(C(F)(F)F)cc1)C1CCN(CCC2(c3cccc(F)c3)CCN(C(=O)c3cc(S(=O)(=O)NC(C)(C)C)c(F)cc3Cl)CC2)CC1	Non-toxic	Non-toxic
C=CCN(C(=O)Nc1ccc(F)cc1)C1CCN(CCC2(c3cccc(F)c3)CCN(C(=O)c3cc(S(=O)(=O)NC(C)(C)C)c(F)cc3Cl)CC2)CC1	Non-toxic	Non-toxic
C=CCN(C(=O)NCc1ccc(F)cc1)C1CCN(CCC2(c3cccc(F)c3)CCN(C(=O)c3cc(S(=O)(=O)NC(C)(C)C)c(F)cc3Cl)CC2)CC1	Non-toxic	Non-toxic
C=CCN(C(=O)Nc1ccc(C#N)cc1)C1CCN(CCC2(c3cccc(F)c3)CCN(C(=O)c3cc(S(=O)(=O)NC(C)(C)C)c(F)cc3Cl)CC2)CC1	Non-toxic	Non-toxic
C=CCN(C(=O)NCc1ccc(C#N)cc1)C1CCN(CCC2(c3cccc(F)c3)CCN(C(=O)c3cc(S(=O)(=O)NC(C)(C)C)c(F)cc3Cl)CC2)CC1	Non-toxic	Non-toxic
C=CCN(C(=O)Nc1ccc(S(C)(=O)=O)cc1)C1CCN(CCC2(c3cccc(F)c3)CCN(C(=O)c3cc(S(=O)(=O)NC(C)(C)C)c(F)cc3Cl)CC2)CC1	Non-toxic	Non-toxic
C=CCN(C(=O)NCc1ccc(C(=O)OC)cc1)C1CCN(CCC2(c3cccc(F)c3)CCN(C(=O)c3cc(S(=O)(=O)NC(C)(C)C)c(F)cc3Cl)CC2)CC1	Non-toxic	Non-toxic
C=CCN(C(=O)NCc1ccc(C(N)=O)cc1)C1CCN(CCC2(c3cccc(F)c3)CCN(C(=O)c3cc(S(=O)(=O)NC(C)(C)C)c(F)cc3Cl)CC2)CC1	Non-toxic	Non-toxic
C=CCN(C(=O)Nc1ccc(OC(C)=O)cc1)C1CCN(CCC2(c3cccc(F)c3)CCN(C(=O)c3cc(S(=O)(=O)NC(C)(C)C)c(F)cc3Cl)CC2)CC1	Non-toxic	Non-toxic
C=CCN(C(=O)Cc1ccc(C(F)(F)F)cc1)C1CCN(CCC2(c3cccc(F)c3)CCN(C(=O)c3cc(S(=O)(=O)NC(C)(C)C)c(F)cc3Cl)CC2)CC1	Non-toxic	Non-toxic
C=CCN(C(=O)Cc1ccc(F)cc1)C1CCN(CCC2(c3cccc(F)c3)CCN(C(=O)c3cc(S(=O)(=O)NC(C)(C)C)c(F)cc3Cl)CC2)CC1	Non-toxic	Non-toxic
C=CCN(C(=O)Cc1ccc(S(C)(=O)=O)cc1)C1CCN(CCC2(c3cccc(F)c3)CCN(C(=O)c3cc(S(=O)(=O)NC(C)(C)C)c(F)cc3Cl)CC2)CC1	Non-toxic	Non-toxic
C=CCN(C(=O)Cc1ccc(OC(F)(F)F)cc1)C1CCN(CCC2(c3cccc(F)c3)CCN(C(=O)c3cc(S(=O)(=O)NC(C)(C)C)c(F)cc3Cl)CC2)CC1	Non-toxic	Non-toxic
C=CCN(C(=O)Cc1ccc(C(N)=O)cc1)C1CCN(CCC2(c3cccc(F)c3)CCN(C(=O)c3cc(S(=O)(=O)NC(C)(C)C)c(F)cc3Cl)CC2)CC1	Non-toxic	Non-toxic
